IC50 data for 2 compounds are collected here from ChEMBL document CHEMBL1201862, “PubChem BioAssay data set” (2004).

Activity calls are given as the source filed them. Rule as the data show it: actives have a measured IC50 and inactives only a lower limit.

The target of this assay is Envelope glycoprotein gp160 (Human immunodeficiency virus 1, UniProt Q6QLK5). Put plainly: cell-free HIV fusion peptide-binding blockers – biochemical, uHTS, fluorescence dequenching, […] (AID 1986).
Envelope glycoprotein gp160, sequence (Q6QLK5 whole entry, the tested form may be a part): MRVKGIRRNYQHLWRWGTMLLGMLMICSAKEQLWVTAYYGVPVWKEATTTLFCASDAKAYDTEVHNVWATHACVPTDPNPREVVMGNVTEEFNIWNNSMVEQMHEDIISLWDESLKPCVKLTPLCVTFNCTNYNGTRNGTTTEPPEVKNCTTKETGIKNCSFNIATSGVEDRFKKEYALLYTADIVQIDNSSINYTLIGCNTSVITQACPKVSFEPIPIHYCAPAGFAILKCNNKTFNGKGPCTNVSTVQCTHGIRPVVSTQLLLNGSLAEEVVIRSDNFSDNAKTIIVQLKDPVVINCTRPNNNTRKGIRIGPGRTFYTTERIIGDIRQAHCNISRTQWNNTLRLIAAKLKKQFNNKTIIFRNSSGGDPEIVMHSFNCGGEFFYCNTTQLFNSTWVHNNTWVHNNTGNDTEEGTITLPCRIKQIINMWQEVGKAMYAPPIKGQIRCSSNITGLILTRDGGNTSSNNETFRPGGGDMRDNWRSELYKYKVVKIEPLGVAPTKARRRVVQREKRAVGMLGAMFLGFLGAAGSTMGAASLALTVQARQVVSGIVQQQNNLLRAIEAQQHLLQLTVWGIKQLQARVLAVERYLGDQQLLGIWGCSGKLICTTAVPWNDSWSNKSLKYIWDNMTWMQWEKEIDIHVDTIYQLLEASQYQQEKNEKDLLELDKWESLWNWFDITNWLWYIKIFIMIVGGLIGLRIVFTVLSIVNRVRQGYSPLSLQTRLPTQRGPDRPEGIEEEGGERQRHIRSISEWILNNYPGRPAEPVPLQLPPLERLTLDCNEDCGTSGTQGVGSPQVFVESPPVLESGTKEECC

For `O=C(O)c1[nH]c2ccccc2c1C(c1c(F)cccc1Cl)c1c(C(=O)O)[nH]c2ccccc12`, the half-maximal inhibitory concentration (IC50) (as a rule, the concentration that gives 50% inhibition) is 13.4 µM (active). The result for `Cc1nn(CCc2nn[nH]n2)c2nc(-c3ccc(C4CCCCC4)cc3)cc(C(F)(F)F)c12` reads 12.4 µM (active).
